We go through two compounds from patent US8404703B2, “Medicinal compositions containing aspirin” (Daiichi Sankyo Company, Limited, priority 2000, dated 2013).

The assay deals with thrombogenesis or thrombus formation. Description: Inhibitory activity against thrombogenesis, modified arterio-venous shunt thrombosis model in rats. The class given is in vivo, male Sprague Dawley rats. To be noted: oral, shunt circulation started 2 h after administration, 30 min circulation, average ±SE (n=6). An excerpt: As the test animals, male Sprague Dawley rats of 7 weeks old were purchased from SLC Japan and 6 rats per group were used.
2-Acetoxy-5-(α-cyclopropylcarbonyl-2-fluorobenzyl)-4,5,6,7-tetrahydrothieno[3,2-c]pyridine was synthesized according to the method described in the Specification of Japanese Patent Application Publication No. Hei 6-41139 and was used, while aspirin was purchased from Sigma Chemical Co. and was used. Both compounds were suspended in 5% (w/v) gum arabic solution, and were diluted so as to be 1 ml/kg of administration volume and were orally administered.
The inhibitory activities of the compounds against thrombogenesis or thrombus formation were evaluated in the modified arterio-venous shunt thrombosis model in rats, which was described by Umetsu et al. [Thromb. Haemost., 39, 74-83 (1978)].
The shunt tube was prepared as follows; i.e., both sides of a medical silicon tube of 12 cm length [inner diameter: 1.5 mm, outer diameter: 2.5 mm, purchased from KANEKA Medix Co., Ltd] were connected each to a polyethylene tube of 7 cm length [inner diameter: 0.5 mm, outer diameter: 1.0 mm, purchased from Natsume Seisakusho Co., Ltd.] covered with silicon via a medical silicon tube of 0.7 cm length [inner diameter: 1.0 mm, outer diameter: 1.5 mm, KANEKA Medix Co., Ltd] as connector. A surgical suture of 10 cm length was placed in the silicon tube of 12 cm length.
The animal was anesthetized with an intraperitoneal injection of 40 mg/kg of pentobarbital sodium (purchased from Abbott Laboratories Inc.), and the jugular of one side and the carotid of the other side were exposed. The arteriovenous shunt was made by cannulation of a shunt tube filled with heparin solution [[…], purchased from Fuso Pharmaceutical Co., Ltd] into the carotid and the jugular which had been previously exposed.
The test compounds were orally administered and the blood was started to circulate into the shunt area two hours after the administration. Thirty minutes after the circulation was started, the shunt tube was removed, and the thrombus adsorbed on the surgical suture was weighed. The results in the table are expressed as the average weight ±SE (n=6).

`CC(=O)Oc1ccccc1C(=O)O` [Aspirin, aspirin]: where the note is “Aspirin 10 mg/kg alone”, the “Inhibition Rate” value is 12.3 ± 4.4% and the “Thrombus Weight” value turned out to be 46.6 ± 2.8 mg.
For `CC(=O)Oc1cc2c(s1)CCN(C(C(=O)C1CC1)c1ccccc1F)C2` (stereo not drawn) [Compound A, 2-Acetoxy-5-(α-cyclopropylcarbonyl-2-fluorobenzyl)-4,5,6,7-tetrahydrothieno[3,2-c]pyridine], under “Compound A 0.3 mg/kg alone”, the “Inhibition Rate” value turned out to be 17.0 ± 4.1% and the “Thrombus Weight” value is recorded as 43.5 ± 2.1 mg. Under “Compound A 0.6 mg/kg alone”, the “Inhibition Rate” value was found to be 28.3 ± 4.0% and the “Thrombus Weight” value came to 37.5 ± 2.1 mg.
